System: bone cells containing osteoclast cells
Assay: Pit formation assay: inhibition of osteolysis (absorption pits on ivory slices)
Assay type: cell-based, ICR mice
Settings: for inhibition at 10 µM: Mus musculus, Osteoclast, read-out: Ratio of inhibition (%)
Protocol: ICR mice 11-12 days old (purchased from Charles River Japan) were euthanized by anesthesia with ether and immediately immersed in 70% ethanol for disinfection. By the use of ophthalmologist scissors and pincers sterilized in advance with ethanol, femur and tibia were excised from the sacrificed mice and chopped into small pieces in an α-MEM culture medium (purchased from Flow Laboratories Corp.). containing 5% FBS (purchased from Irvine Scientific Corp.), 100 U/ml penicillin and 100 μg/ml streptomycin. The supernatant formed consequently was recovered by pipeting, cleaned with the culture broth, and suspended in a 5% FBS α-MEM culture broth to obtain bone cells containing osteoclast cells. The supernatant of a bone cell-floating liquid formed after 3 minutes' standing of the bone cells at rest was recovered and passed through a mesh (cell strainer, 70 μm, purchased from Falcon Corp.). The filtrate was adjusted to a cell concentration of 1×10^7 /ml and used for the pit formation assay.
An ivory piece was cut into slices, 150 μm in thickness, by the use of a precision low-speed cutting machine (purchased from Buehler Corp.). Cylindrical holes, 6 mm in diameter, were perforated in the slices by the use of a one-hole punch. The ivory slices were immersed in 70% ethanol and subjected therein to an ultrasonic cleaning treatment twice each for five minutes and washed three times with a sterilized PBS and twice with the culture medium. The ivory slices were set in place on a 96-hole culture plate (purchased from Falcon Corp.). The perforated ivory slices on the culture plate, with a culture broth containing a given compound of the present invention prepared in a concentration of 2×10^-5 M added in a fixed volume of 100 μl (final medicine concentration 1×10^-5 M) to each of the holes and a culture broth containing prepared bone cells in a concentration of 1×10^7 /ml placed in each of the holes, were cultured for three days in a 10% CO2 incubator at 37° C. After the culture, the ivory slices were placed in an aqueous 2 N sodium hydroxide and the cells on the slices were removed by the use of a rubber spatula. The ivory slices were washed with water and methanol. The absorption pits formed in the ivory slices were dyed with Coomassie Brilliant Blue and were counted under a microscope. Though the numbers of absorption pits were naturally found to disperse among test lots, depending on the ratios of varying specie s of cells in the bone cell suspensions and the lots of animals used, satisfactorily uniform test results were found in one and the same test lot. The ratio of inhibition of osteolysis was calculated on the 100% scale, in which 0% stands for the number of absorption pits found in the culture broth in the presence of rPTH (1×10^-8 M) and in the absence of a medicine and 100% for total absence of absorption pit.
The test described above was performed in a total of ten runs, Tests 1-10.
In the columns titled "Added medicine No." found in Table 2 and Table 3, the symbol (-) denotes a control involving no addition of medicine and the numerical No. denotes the No. of the compound mentioned above.

[1] = 72 h, compound 10^-5 M, 0% = pits with rPTH (1×10^-8 M) without medicine, 100% = no absorption pit

Row | Molecule | No. of absorption pits (Mean ± SD) (72 h, 10 µM) | inhibition at 10 µM [1] | No. of absorption pits (Mean ± SD) (compound 10^-5 M, 3 days culture at 37° C., 10% CO2, control per test run given as (-)) | Ratio of inhibition (%) (compound 10^-5 M, 0% = pits with rPTH (1×10^-8 M) without medicine, 100% = no absorption pit, 4320 min, 10 µM)
1 | CC(C)=CCOc1cc(C)c(C(=O)CC(C)C)c(O)c1 [Compound 48, {2-hydroxy-6-methyl-4-(3-methyl-2-butenyloxy)phenyl} (2-methylpropyl) ketone] | 85.2 ± 7.5 | 57.8% | – | –
2 | {6-(3-methyl-2-butenyl)-2,4,5-trihydroxyphenyl} (2-methylpropyl) ketonemono(3-methyl-2-butenyl) ether [Compound 27] | – | – | 38.8 ± 6.6 | 80.8%
3 | CC(C)=CCc1c(O)cc(C)c(C(=O)CC(C)C)c1O [Compound 49, {2,4-dihydroxy-6-methyl-3-(3-methyl-2-butenyl)phenyl} (2-methylpropyl) ketone] | 44.3 ± 5.4 | 78% | – | –
4 | CC(C)=CCC1=C(O)C(CC=C(C)C)(CC=C(C)C)C(=O)C(C(=O)CC(C)CCCC(C)C)=C1O (centres unmarked) [Compound 22, 3,5-dihydroxy-6-(3,7-dimethyl-1-oxooctyl)-2,2,4-tris(3-methyl-2-butenyl)cyclohexa-3,5-dienone] | 3.5 ± 1.1 | 98.1% | – | –
5 | CC(C)=CCCC(C)=CCC1=C(O)C(CC=C(C)CCC=C(C)C)(CC=C(C)CCC=C(C)C)C(=O)C(C(=O)Cc2ccccc2)=C1O (centres unmarked) [Compound 44, 3,5-dihydroxy-6-(phenylacetyl)-2,2,4-tris(3,7-dimethyl-2,6-octadienyl)cyclohexa-3,5-dienone] | 7.7 ± 2.0 | 96.6% | – | –
6 | CC(C)=CCC1=C(O)C(CC=C(C)C)(CC=C(C)C)C(=O)C(C(=O)CC(C)C)=C1O [Compound 16, 3,5-dihydroxy-6-(3-methyl-1-oxobutyl)-2,2,4-tris(3-methyl-2-butenyl)cyclohexa-3,5-dienone] | 0 | 100% | – | –
7 | CC(C)=CCCC(C)=CCc1c(O)c(CC=C(C)CCC=C(C)C)c(O)c(C(=O)CC(C)C)c1O [Compound 19, {3,5-bis(3,7-dimethyl-2,6-octadienyl)-2,4,6-trihydroxyphenyl} (2-methylpropyl) ketone] | 55.3 ± 6.1 | 70.5% | – | –
8 | CC(C)=CCc1c(O)cc(O)c(C(=O)CC(C)C)c1C [Compound 50, {4,6-dihydroxy-2-methyl-3-(3-methyl-2-butenyl)phenyl} (3-methylpropyl) ketone] | 40.1 ± 7.0 | 80.1% | – | –
9 | CC(C)=CCCC(C)=CCc1c(O)c(CC=C(C)CCC=C(C)C)c(O)c(C(=O)Cc2ccccc2)c1O [Compound 43, {3,5-bis(3,7-dimethyl-2,6-octadienyl)-2,4,6-trihydroxyphenyl} (phenylmethyl) ketone] | 11.3 ± 2.5 | 95% | – | –
10 | CC(C)CC(=O)C1=C(O)C(Cc2ccccc2)=C(O)C(Cc2ccccc2)(Cc2ccccc2)C1=O [Compound 36, 2,2,4-trisbenzyl-6-(3-methyl-1-oxobutyl)-3,5-dihydroxycyclohexa-3,5-dienone] | 3.8 ± 0.9 | 98.1% | – | –
11 | CC(C)=CCc1c(O)cc(O)c(C(=O)Cc2ccccc2)c1O [Compound 42, {3-(3-methyl-2-butenyl)-2,4,6-trihydroxyphenyl} (phenylmethyl) ketone] | 31.7 ± 3.6 | 74.7% | – | –
12 | CC(C)=CCc1c(O)c(O)c(CC=C(C)C)c(C(=O)CC(C)C)c1O [Compound 25, {3,6-bis(3-methyl-2-butenyl)-2,4,5-trihydroxyphenyl} (2-methylpropyl) ketone] | 0 | 100% | – | –
13 | CC(C)=CCCC(C)=CCc1c(O)cc(O)c(C(=O)Cc2ccccc2)c1O [Compound 46, {3-(3,7-dimethyl-2,6-octadienyl)-2,4,6-trihydroxyphenyl} (phenylmethyl) ketone] | 125.3 ± 12.6 | 44.3% | – | –
14 | Cc1cc(O)cc(O)c1C(=O)CC(C)C [Compound 47, (2,4-dihydroxy-6-methylphenyl) (2-methylpropyl) ketone] | 179.8 ± 23.8 | 10.9% | – | –
15 | CC(C)=CCc1c(O)c(O)cc(C(=O)CC(C)C)c1O [Compound 26, {3-(3-methyl-2-butenyl)-2,4,5-trihydroxyphenyl} (2-methylpropyl) ketone] | 29.3 ± 4.8 | 85.5% | – | –
16 | CC(C)=CCCC(C)=CCC1(CC=C(C)CCC=C(C)C)C(=O)C(C(=O)Cc2ccccc2)=C(O)C=C1O (centres unmarked) [Compound 45, 3,5-dihydroxy-6-(phenylacetyl)-2,2-bis(3,7-dimethyl-2,6-octadienyl)cyclohexa-3,5-dienone] | 8.2 ± 1.8 | 96.4% | – | –
17 | CC(C)CC(=O)C1=C(O)C(Cc2ccccc2)=C(O)C(O)(Cc2ccccc2)C1=O (centres unmarked) [Compound 33, 2,4-bisbenzyl-6-(3-methyl-1-oxobutyl)-2,3,5-trihydroxycyclohexa-3,5-dienone] | 9.8 ± 1.8 | 95.1% | – | –
18 | CC(C)=CCOc1c(CC=C(C)C)c(C)c(C(=O)CC(C)C)c(O)c1CC=C(C)C [Compound 51, {3,5-bis(3-methyl-2-butenyl)-2-hydroxy-6-methyl-4-(3-methyl-2-butenyloxy)phenyl} (2-methylpropyl) ketone] | 102.7 ± 6.2 | 42.8% | – | –
19 | CC(C)=CCc1c(O)cc(O)c(C(=O)C(C)C)c1O [Compound 14, {3-(3-methyl-2-butenyl)-2,4,6-trihydroxyphenyl} (2-propyl) ketone] | 26.0 ± 2.6 | 67.5% | – | –
20 | CC(C)=CCc1c(O)ccc(C(=O)CC(C)C)c1O [Compound 54, (2,4-dihydroxy-3-(3-methyl-2-butenyl)phenyl) (2-methylpropyl) ketone] | 66.5 ± 9.7 | 61.2% | – | –
21 | CC(=O)C1=C(O)C(CC=C(C)C)=C(O)C(O)(CC=C(C)C)C1=O (centres unmarked) [Compound 30, 2,4-bis(3-methyl-2-butenyl)-6-(1-oxoethyl)-2,3,5-trihydroxycyclohexa-3,5-dienone] | 21.4 ± 3.9 | 78.2% | – | –
22 | CC(C)=CCC1=C(O)C(CC=C(C)C)(CC=C(C)C)C(=O)C(C(=O)Cc2ccccc2)=C1O [Compound 40, 3,5-dihydroxy-6-(phenylacetyl)-2,2,4-tris(3-methyl-2-butenyl)-cyclohexa-3,5-dienone] | 4.9 ± 3.8 | 96.1% | – | –
23 | CC(C)=CCCC(C)=CCC1=C(O)C(CC=C(C)CCC=C(C)C)(CC=C(C)CCC=C(C)C)C(=O)C(C(=O)CC(C)C)=C1O (centres unmarked) [Compound 20, 3,5-dihydroxy-6-(3-methyl-1-oxobutyl)-2,2,4-tris(3,7-dimethyl-2,6-octadienyl)cyclohexa-3,5-dienone] | 3.0 ± 1.3 | 98.4% | – | –
24 | CC(C)=CCc1c(O)c(CC=C(C)C)c(O)c(C(=O)CC(C)C)c1O [Compound 15, {3,5-bis(3-methyl-2-butenyl)-2,4,6-trihydroxyphenyl} (2-methylpropyl) ketone] | 8.3 ± 2.4 | 89.6% | – | –
25 | O=C(Cc1ccccc1)c1c(O)cc(O)cc1O [Compound 38, (phenylmethyl) (2,4,6-trihydroxyphenyl) ketone] | 55.8 ± 7.7 | 57.9% | – | –

Source: patent publication US6177474A, “Polyhydroxyphenol derivatives and preventive and therapeutic agents for bone and cartilage diseases containing the same” (Hoechst Marion Roussel, priority 1996, dated 2001)
